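These data come from cells grown in 96-well plates and exposed to compound for 48 hours at five concentrations. At the GI50, growth is halved.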 Activity calls are given as the source filed them. No stated cut-off is given here; in the data, active = GI50 up to about 1.1 µM and inactive = higher.
Legend:
Assay in all cases: NCI-60 cell line screen, 48 h
[1] = tested on: SW-620
[2] = tested on: RPMI-8226
[3] = tested on: SNB-19
[4] = tested on: SN12C
[5] = tested on: HOP-62
[6] = tested on: SK-MEL-5
[7] = tested on: HT-29
[8] = tested on: OVCAR-4
[9] = tested on: UO-31
[10] = tested on: CAKI-1
[11] = tested on: HCC 2998
[12] = tested on: A549
[13] = tested on: OVCAR-3
[14] = tested on: IGROV-1
[15] = tested on: RXF 393
[16] = tested on: SF-539
[17] = tested on: SK-MEL-28
[18] = tested on: HL-60
[19] = tested on: SNB-75

SMILES	GI50 [1]	GI50 [2]	GI50 [3]	GI50 [4]	GI50 [5]	GI50 [6]	GI50 [7]	GI50 [8]	GI50 [9]	GI50 [10]	GI50 [11]	GI50 [12]	GI50 [13]	GI50 [14]	GI50 [15]	GI50 [16]	GI50 [17]	GI50 [18]	GI50 [19]
C[C@]12CC/C(=N\O)C=C1CC[C@@H]1[C@@H]2CC[C@]2(C)C(=N/O)/C(=C/c3ccncc3)C[C@@H]12	37400 nM (inactive)	6850 nM (inactive)	28800 nM (inactive)	17300 nM (inactive)	41200 nM (inactive)	7000 nM (inactive)	11500 nM (inactive)	31900 nM (inactive)	3620 nM (inactive)	24200 nM (inactive)	19100 nM (inactive)	11100 nM (inactive)	20000 nM (inactive)	53800 nM (inactive)	24300 nM (inactive)	31800 nM (inactive)	39800 nM (inactive)	100 nM (active)	25500 nM (inactive)
c1ccc(-n2cnnc2-c2nsc3ccccc23)cc1	> 100000 nM (inactive)	> 100000 nM (inactive)	> 100000 nM (inactive)	> 100000 nM (inactive)	> 100000 nM (inactive)	> 100000 nM (inactive)	> 100000 nM (inactive)	> 100000 nM (inactive)	> 100000 nM (inactive)	–	> 100000 nM (inactive)	> 100000 nM (inactive)	80200 nM (inactive)	> 100000 nM (inactive)	> 100000 nM (inactive)	> 100000 nM (inactive)	> 100000 nM (inactive)	> 100000 nM (inactive)	29500 nM (inactive)
C=C1C(=O)[C@@]23CC[C@H]4[C@@](C)(CCC[C@@]4(C)C(=O)OC)[C@@H]2CC[C@]1(O)C3	624 nM (active)	286 nM (active)	13000 nM (inactive)	1770 nM (inactive)	20200 nM (inactive)	1930 nM (inactive)	1270 nM (inactive)	1890 nM (inactive)	2320 nM (inactive)	1550 nM (inactive)	2820 nM (inactive)	3100 nM (inactive)	1840 nM (inactive)	1630 nM (inactive)	–	1760 nM (inactive)	1840 nM (inactive)	301 nM (active)	2370 nM (inactive)
CC(=O)OC(C)c1cc2c(s1)C(=O)c1ccsc1C2=O (configuration not stated)	324 nM (active)	82.6 nM (active)	166 nM (active)	156 nM (active)	137 nM (active)	27.3 nM (active)	170 nM (active)	664 nM (active)	184 nM (active)	895 nM (active)	451 nM (active)	1370 nM (inactive)	40.5 nM (active)	659 nM (active)	206 nM (active)	52.8 nM (active)	172 nM (active)	12.2 nM (active)	148 nM (active)
C[C@H]1O[C@@H](O[C@H]2[C@@H](O)C[C@H](O[C@H]3[C@@H](O)C[C@H](O[C@H]4CC[C@@]5(C)[C@H](CC[C@@H]6[C@@H]5CC[C@]5(C)[C@@H](C7=CC(=O)OC7)CC[C@]65O)C4)O[C@@H]3C)O[C@@H]2C)C[C@H](O)[C@@H]1O [DIGITOXIN]	29.6 nM (active)	29.2 nM (active)	75 nM (active)	< 10 nM (active)	< 19.9 nM (active)	< 21.2 nM (active)	33.8 nM (active)	19.9 nM (active)	41.4 nM (active)	18.4 nM (active)	171 nM (active)	< 15.7 nM (active)	< 17.2 nM (active)	36.5 nM (active)	17.5 nM (active)	< 12.3 nM (active)	92 nM (active)	–	67.6 nM (active)

Reference: ChEMBL document CHEMBL1201862, “PubChem BioAssay data set” (2004)
